pIC50: −log10 of the molar value. Activity calls are given as the source filed them. The rule behind the calls is not given here.
Assays:
[1] = tested on: U-87 MG; assay: Antiproliferative activity against human U-87 MG cells assessed as inhibition of cell growth measured up to 72 hrs by CCK-8 assay; format: functional, cell-based; conditions: U-87MG ATCC, time hrs <=72
[2] = AUC (0 to t) in Sprague-Dawley rat at 100 mg/kg, ip measured up to 24 hrs by LC-MS analysis; format: ADME, organism-based; design: route intraperitoneal, dose 100 mg/kg, time <=24; conditions: in vivo
[3] = tested on: U-87 MG; assay: Induction of cell cycle arrest in human U-87 MG assessed as decrease in G0/G1 phase accumulation at 10 uM incubated for 72 hrs by propidium iodide/RNase A staining based flow cytometry; format: functional; conditions: U-87MG ATCC
[4] = Acute toxicity in Kunming mouse assessed as death at 500 mg/kg, ip administered as single dose observed every day for 14 days; format: organism-based; conditions: in vivo, 336 h, time 14 day
[5] = molecular target: DNA topoisomerase 2-alpha (Homo sapiens) (UniProt P11388); assay: Inhibition of human topoisomerase 2 alpha using supercoiled DNA pBR322 as substrate assessed as DNA relaxation at 100 uM incubated for 30 mins by ethidium bromide staining based agarose gel electrophoresis
Chain of DNA topoisomerase 2-alpha (Homo sapiens) (P11388 whole entry): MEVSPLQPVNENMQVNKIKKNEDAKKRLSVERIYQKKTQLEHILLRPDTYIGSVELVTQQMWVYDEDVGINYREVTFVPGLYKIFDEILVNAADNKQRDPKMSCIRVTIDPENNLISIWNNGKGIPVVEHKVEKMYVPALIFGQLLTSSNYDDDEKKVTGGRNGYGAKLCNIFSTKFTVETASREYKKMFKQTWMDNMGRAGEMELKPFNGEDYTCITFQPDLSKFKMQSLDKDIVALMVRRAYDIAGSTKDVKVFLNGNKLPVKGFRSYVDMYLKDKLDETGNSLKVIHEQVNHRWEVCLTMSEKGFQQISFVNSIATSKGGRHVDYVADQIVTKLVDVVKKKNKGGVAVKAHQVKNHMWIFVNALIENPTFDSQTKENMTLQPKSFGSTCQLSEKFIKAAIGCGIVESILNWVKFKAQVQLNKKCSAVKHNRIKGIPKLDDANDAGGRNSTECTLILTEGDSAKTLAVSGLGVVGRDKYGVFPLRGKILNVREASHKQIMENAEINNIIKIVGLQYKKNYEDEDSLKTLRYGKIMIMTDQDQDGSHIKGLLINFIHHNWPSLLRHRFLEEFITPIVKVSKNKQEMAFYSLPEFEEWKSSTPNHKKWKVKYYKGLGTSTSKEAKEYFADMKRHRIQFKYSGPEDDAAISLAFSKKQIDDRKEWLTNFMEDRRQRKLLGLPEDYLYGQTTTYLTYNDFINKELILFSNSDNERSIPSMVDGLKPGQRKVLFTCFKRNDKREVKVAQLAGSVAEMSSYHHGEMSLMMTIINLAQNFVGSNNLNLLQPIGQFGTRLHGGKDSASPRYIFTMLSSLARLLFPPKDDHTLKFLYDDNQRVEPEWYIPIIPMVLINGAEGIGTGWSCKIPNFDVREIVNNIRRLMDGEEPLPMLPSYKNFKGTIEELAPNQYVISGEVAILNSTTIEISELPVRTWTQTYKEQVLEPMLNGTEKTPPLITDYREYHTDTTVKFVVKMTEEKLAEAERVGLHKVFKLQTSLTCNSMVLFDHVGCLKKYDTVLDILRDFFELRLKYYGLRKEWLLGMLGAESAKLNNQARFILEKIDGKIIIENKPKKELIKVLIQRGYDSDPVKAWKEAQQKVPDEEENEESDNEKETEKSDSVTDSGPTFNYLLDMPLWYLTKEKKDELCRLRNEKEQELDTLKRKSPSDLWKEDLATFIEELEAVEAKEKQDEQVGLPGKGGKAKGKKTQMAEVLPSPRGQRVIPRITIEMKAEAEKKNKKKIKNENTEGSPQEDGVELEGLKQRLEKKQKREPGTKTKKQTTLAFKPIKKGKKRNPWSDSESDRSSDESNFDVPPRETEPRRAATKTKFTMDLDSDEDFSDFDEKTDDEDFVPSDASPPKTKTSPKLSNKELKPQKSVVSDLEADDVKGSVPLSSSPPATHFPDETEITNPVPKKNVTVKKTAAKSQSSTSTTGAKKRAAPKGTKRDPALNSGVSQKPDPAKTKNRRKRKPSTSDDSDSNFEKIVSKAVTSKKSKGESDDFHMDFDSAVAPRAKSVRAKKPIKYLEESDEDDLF

[6] = tested on: U-87 MG; assay: Induction of morphological changes in human U-87 MG cells assessed as appearance of spindle cell shape at 3.3 uM incubated for 72 hrs by Giemsa staining based light microscopic method; format: functional; conditions: U-87MG ATCC
[7] = tested on: U-251; assay: Antiproliferative activity against human U-251 cells assessed as cell survival at <= 1.1 uM measured after 24 hrs by CCK-8 assay; format: functional; conditions: dose microM <=1.1
[8] = AUC ( 0 to infinity) in Sprague-Dawley rat at 100 mg/kg, ip measured up to 24 hrs by LC-MS analysis; format: ADME, organism-based; design: route intraperitoneal, dose 100 mg/kg, time <=24; conditions: in vivo
[9] = molecular target: T1, Prostaglandin G/H synthase 2 (Homo sapiens, UniProt P35354); assay: Inhibition of human recombinant COX-2 using arachidonic acid as substrate preincubated 10 mins followed by substrate addition and measured after 2 mins by ELISA
T1 sequence (P35354 whole entry): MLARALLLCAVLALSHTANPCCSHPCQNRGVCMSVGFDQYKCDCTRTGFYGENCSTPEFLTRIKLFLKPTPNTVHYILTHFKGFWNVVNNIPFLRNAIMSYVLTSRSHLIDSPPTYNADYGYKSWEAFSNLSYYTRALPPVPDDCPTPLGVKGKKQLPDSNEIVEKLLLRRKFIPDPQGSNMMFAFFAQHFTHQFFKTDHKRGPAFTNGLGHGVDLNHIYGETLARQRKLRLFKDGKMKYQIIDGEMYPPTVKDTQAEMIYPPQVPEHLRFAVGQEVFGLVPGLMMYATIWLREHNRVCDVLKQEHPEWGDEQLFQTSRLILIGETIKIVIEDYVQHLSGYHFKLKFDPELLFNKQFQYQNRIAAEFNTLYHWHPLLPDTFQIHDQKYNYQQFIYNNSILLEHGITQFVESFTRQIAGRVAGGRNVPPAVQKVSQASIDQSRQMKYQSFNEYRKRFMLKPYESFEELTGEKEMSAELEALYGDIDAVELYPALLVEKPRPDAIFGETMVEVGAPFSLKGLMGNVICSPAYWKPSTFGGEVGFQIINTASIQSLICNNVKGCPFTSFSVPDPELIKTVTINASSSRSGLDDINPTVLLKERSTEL

[10] = tested on: U-87 MG; assay: Induction of cell cycle arrest in human U-87 MG cells assessed as increase in G2 phase accumulation at 10 uM incubated for 72 hrs by propidium iodide/RNase A staining based flow cytometry; format: functional; conditions: U-87MG ATCC
[11] = tested on: U-87 MG; assay: Inhibition of colony formation in human U-87 MG cells measured after 8 days by crystal violet staining based assay; format: functional, cell-based; conditions: U-87MG ATCC, time 8.0 day
[12] = tested on: U-251; assay: Inhibition of cell migration in human U-251 cells incubated for 24 hrs by crystal violet staining based light microscopic analysis; format: functional
[13] = tested on: U-251; assay: Induction of morphological changes in human U-251 cells assessed as appearance of rounded and shortened cells at 3.3 uM incubated for 72 hrs by Giemsa staining based light microscopic method; format: functional, cell-based
[14] = Ratio of drug concentration in brain to plasma in Sprague-Dawley rat at 100 mg/kg, ip measured 6 hrs post administration by LC-MS/MS analysis; format: ADME, organism-based; conditions: read-out: BPR
[15] = Drug concentration in Sprague-Dawley rat brain at 100 mg/kg, ip measured 6 hrs post administration by LC-MS analysis; format: ADME, organism-based; conditions: read-out: Ct
[16] = Drug concentration in Sprague-Dawley rat plasma at 100 mg/kg, ip measured 6 hrs post administration by LC-MS analysis; format: ADME, organism-based
[17] = Half life in Sprague-Dawley rat at 100 mg/kg, ip measured up to 24 hrs by LC-MS analysis; format: ADME, organism-based; conditions: in vivo
[18] = tested on: U-251; assay: Induction of cell cycle arrest in human U-251 cells assessed as reduction in G0/G1 phase accumulation at 10 uM incubated for 72 hrs by propidium iodide/RNase A staining based flow cytometry (reference value: 79.12%); format: functional; design: scale not given: the % may be the effect or the level left
[19] = tested on: U-87 MG; assay: Antiproliferative activity against human U-87 MG cells assessed as inhibition of cell growth measured after 72 hrs by CCK-8 assay; format: functional, cell-based, U-87MG ATCC
[20] = tested on: U-251; assay: Induction of cell cycle arrest in human U-251 cells assessed as increase in G2 phase accumulation at 10 uM incubated for 72 hrs by propidium iodide/RNase A staining based flow cytometry (reference value: 20.88%); format: functional
[21] = molecular target: T2, DNA topoisomerase 1 (Homo sapiens, UniProt P11387); assay: Inhibition of human topoisomerase I using DNA pBR322 as substrate assessed as DNA relaxation incubated for 45 mins by ethidium bromide staining based agarose gel electrophoresis
T2 sequence (P11387 whole entry): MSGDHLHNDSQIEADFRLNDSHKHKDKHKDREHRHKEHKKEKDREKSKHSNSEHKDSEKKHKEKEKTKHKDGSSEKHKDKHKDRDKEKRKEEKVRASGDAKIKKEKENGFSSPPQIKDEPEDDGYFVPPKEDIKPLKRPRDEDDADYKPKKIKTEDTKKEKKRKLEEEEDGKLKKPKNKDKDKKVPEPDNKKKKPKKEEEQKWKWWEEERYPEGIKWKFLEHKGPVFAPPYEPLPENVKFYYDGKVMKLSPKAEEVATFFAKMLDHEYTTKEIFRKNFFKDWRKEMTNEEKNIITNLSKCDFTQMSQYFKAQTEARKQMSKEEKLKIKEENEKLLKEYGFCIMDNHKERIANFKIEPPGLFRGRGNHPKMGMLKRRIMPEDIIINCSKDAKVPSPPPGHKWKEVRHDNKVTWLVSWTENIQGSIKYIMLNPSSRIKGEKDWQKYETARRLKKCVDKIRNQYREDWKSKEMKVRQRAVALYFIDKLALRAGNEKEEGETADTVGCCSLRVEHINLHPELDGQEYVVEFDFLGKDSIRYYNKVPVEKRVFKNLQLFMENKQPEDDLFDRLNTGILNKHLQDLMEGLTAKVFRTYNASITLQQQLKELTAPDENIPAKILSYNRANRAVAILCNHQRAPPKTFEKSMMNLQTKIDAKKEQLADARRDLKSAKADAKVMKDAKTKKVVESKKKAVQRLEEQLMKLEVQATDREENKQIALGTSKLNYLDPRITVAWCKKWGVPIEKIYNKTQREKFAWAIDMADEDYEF

[22] = tested on: U-251; assay: Induction of morphological changes in human U-251 cells assessed as appearance of shrunken cell bodies at 3.3 uM incubated for 72 hrs by Giemsa staining based light microscopic method; format: functional

Row | Structure (SMILES) | Activity [1] | AUC(0-t) at 24 h [2] [ng·h/mL] | Activity [3] | Activity [4] | inhibition [5] | Activity [6] | Survival [7] [%] | AUC(0-inf) [8] [ng·h/mL] | pIC50 [9] | Activity [10] | inhibition [11] | inhibition [12] | Activity [13] | Kp at 6 h [14] | concentration at 6 h [15] [ng/mL] | concentration at 6 h [16] [ng/mL] | half-life [17] [min] | Activity [18] [%] | pIC50 [19] | Activity [20] [%] | also measured
1 | Cc1c(Cl)cccc1Nc1ccccc1C(=O)Nc1ccc2c(c1)OCO2 | Dose-Dependent Effect | 46200 | Active | Non-Toxic | inactive | Active | >80 | 49200 | 4.35 | Active | Dose-Dependent Effect | Dose-Dependent Effect | Active | 0.29 | 1410 | 4990 | 502 | 25.36 | 5.19 | 74.64 | pIC50 [21]: 4.32; Activity [22]: Active
2 | COc1ccc(NC(=O)c2ccccc2Nc2cccc(Cl)c2C)cc1 | Dose-Dependent Effect | 78400 | Active | Toxic | inactive | Active | >80 | 86200 | 4.47 | Active | Dose-Dependent Effect | Dose-Dependent Effect | Active | 0.65 | 3380 | 5790 | 402 | 26.28 | 5.32 | 73.72 | pIC50 [21]: 4.47; Activity [22]: Active
